{
  "source": "patent US12544373B2",
  "about": "“Treatment of cancer, inflammatory diseases and autoimmune diseases” (Usher III Initiative, Inc., priority 2020, dated 2026)",
  "key": {"OVXF A2780": {"system": "OVXF A2780", "assay": "CellTiter-Blue Cell Viability Assay (Example 2), ovarian", "type": "cell-based, human", "settings": "for T/C %: 72 h", "text": "(§1) The CellTiter-Blue® Cell Viability Assay was used to assess the viability of cells from various cancer cell lines, in the presence or absence of Compound 85 (at different concentrations). This assay provides a homogeneous, fluorometric method for estimating the number of viable cells present in multi-well plates. Viable cells retain the ability to reduce resazurin to resorufin, which is highly fluorescent. […] The fluorescence produced is proportional to the number of viable cells. There is a linear relationship between cell number and fluorescence.\n(§2) Cancer cells (see Table 6) were harvested from exponential phase cultures, counted and plated in 96 well flat-bottom microtiter plates, at a cell density 6,000-20,000 cells/well, depending on the cell line's growth rate. The culture medium was supplemented with 10% (v/v) foetal calf serum and 50 μg/mL gentamicin (140 μL/well). Cultures were incubated at 37° C. and 5% CO2 in a humidified atmosphere.\n(§3) Compound 85 was serially diluted in DMSO, and five Compound 85 concentrations in half-log increments were used: 0.03 μM, 0.09 μM, 0.30 μM, 1.0 μM, and 3.0 μM. After 24 h, 10 μL of Compound 85 (dissolved in DMSO) or control (DMSO) medium were added, in duplicates, and left on the cells for another 72 h. Compound 85 solutions were added to the assay plates using a Tecan Freedom EVO 200 robotic platform. The DMSO concentration was kept constant at 0.3% v/v across the assay plate.\n(§4) After incubation of up to 72 hours, fluorescence (FU) was measured using the EnSpire® multimode plate reader (Perkin Elmer) (excitation λ=570 nm, emission λ=600 nm).\n(§5) Cancer cell lines used: Compound 85's anti-cancer effect was tested in 20 human cancer-cell lines representing nine cancer types (Table 6).\n(§6) The percentage of viable cells in the presence of Compound 85 (Test condition, T), at different concentrations, are presented in Table 7 and expressed as a percentage of the number of viable cells in the presence of DMSO without Compound 85 (Control condition, C).\n(§7) The relative IC50 is determined as the Compound 85 concentration giving a response halfway between the maximum cell viability signal (i.e., a 100% cell viability, no Compound 85 response) and the minimal viability signal (i.e. maximum cell viability inhibition achieved by Compound 85), in a sigmoidal concentration-effect curve.\n(§8) The absolute IC50 is determined as the concentration that is associated with a T/C ratio of 50%."}, "OVXF 899": {"system": "OVXF 899", "assay": "CellTiter-Blue Cell Viability Assay (Example 2), ovarian", "type": "cell-based, human", "settings": "for T/C %: 72 h", "text": "as §1, §2, §3, §4, §5, §6, §7, §8"}},
  "note": "Where two headings read alike, the source gives them in different places.",
  "data": [
    {"smiles": "CC(C)(O)Cn1nc(-c2ccccc2)c2c(Cl)c(-c3ccccc3)nnc21", "note": "[Compound 85]", "values": [
      {"measurement": "Absolute IC70", "setting": "OVXF A2780", "result": 463, "unit": "nM"},
      {"measurement": "Relative IC70", "setting": "OVXF A2780", "result": 463, "unit": "nM"},
      {"measurement": "T/C %", "setting": "OVXF A2780; 0.03 μM", "result": 102, "unit": "%"},
      {"measurement": "T/C %", "setting": "OVXF A2780; 0.095 μM", "result": 96, "unit": "%"},
      {"measurement": "T/C %", "setting": "OVXF A2780; 0.3 μM", "result": 87, "unit": "%"},
      {"measurement": "T/C %", "setting": "OVXF A2780; 0.95 μM", "result": 0, "unit": "%"},
      {"measurement": "T/C %", "setting": "OVXF A2780; 3.0 μM", "result": 0, "unit": "%"},
      {"measurement": "IC50", "setting": "OVXF A2780; read-out: Absolute IC50", "result": 405, "unit": "nM"},
      {"measurement": "IC50", "setting": "OVXF A2780; read-out: Relative IC50", "result": 406, "unit": "nM"},
      {"measurement": "Absolute IC70", "setting": "OVXF 899", "result": 418, "unit": "nM"},
      {"measurement": "Relative IC70", "setting": "OVXF 899", "result": 423, "unit": "nM"},
      {"measurement": "T/C %", "setting": "OVXF 899; 0.03 μM", "result": 98, "unit": "%"},
      {"measurement": "T/C %", "setting": "OVXF 899; 0.095 μM", "result": 94, "unit": "%"},
      {"measurement": "T/C %", "setting": "OVXF 899; 0.3 μM", "result": 65, "unit": "%"},
      {"measurement": "T/C %", "setting": "OVXF 899; 0.95 μM", "result": 1, "unit": "%"},
      {"measurement": "T/C %", "setting": "OVXF 899; 3.0 μM", "result": 0, "unit": "%"},
      {"measurement": "IC50", "setting": "OVXF 899; read-out: Absolute IC50", "result": 346, "unit": "nM"},
      {"measurement": "IC50", "setting": "OVXF 899; read-out: Relative IC50", "result": 352, "unit": "nM"}
    ]}
  ]
}
